The values that follow come from US8551984B2, “Aminopyrimidines as SYK inhibitors” (Merck Sharp & Dohme Corp., priority 2009, dated 2013).

Structures are written as SMILES.

The target in the first experiment is rhSYK (Homo sapiens, UniProt P43405). The following applies: read-out: rhSYK Activity; Table 117.
As for `Cc1cc(Nc2nccc(C(F)(F)F)n2)cc(-c2cnc(C(C)(O)c3ccc(C(N)=O)cc3)s2)c1` (single isomer, unassigned) [Example 117-21], the IC50 is under 100 nM.

The same experiment, now with this note: read-out: rhSYK Activity; Table 119; two symbols in a cell = one per listed form.
Consider `Cc1cc(Nc2nccc(C(F)(F)F)n2)cc(-c2cnc(C3(O)CCC(C(N)=O)C3)s2)c1` (single isomer, unassigned) [Example 119-1], for which the IC50 was under 100 nM.
With `Cc1cc(Nc2nccc(C(F)(F)F)n2)cc(-c2cnc(C3(O)CCC(C(N)=O)C3)s2)c1` (single isomer, unassigned) [Example 119-3], the IC50 is under 100 nM.
Still for that read-out and setting: in the case of `Cc1cc(Nc2nccc(C(F)(F)F)n2)cc(-c2cnc(C3(O)CCC(C(N)=O)C3)s2)c1` (single isomer, unassigned) [Example 119-4] it was under 100 nM; in that of `Cc1cc(Nc2nccc(C)n2)cc(-c2cnc(C3(O)CCC(C(N)=O)C(C)C3)s2)c1` (single isomer, unassigned) [Example 119-6], under 100 nM; in that of `Cc1cc(Nc2nccc(C(F)(F)F)n2)cc(-c2cnc(C3(O)CCC(C(N)=O)C(C)C3)s2)c1` (single isomer, unassigned) [Example 119-112], under 100 nM.

The experiment is the same for the next values; noted with them: read-out: rhSYK Activity; class symbol; where two forms are listed, one symbol per form.
Regarding `COc1cc(C(C)(O)c2ncc(-c3cc(C)cc(Nc4nccc(C(F)(F)F)n4)c3)s2)ccc1C(=O)O` (single isomer, unassigned) [Example 4A-65], the IC50 is under 100 nM.
Consider `COc1cc(C(C)(O)c2ncc(-c3cc(C)cc(Nc4nccc(C(F)(F)F)n4)c3)s2)ccc1C(=O)O` (single isomer, unassigned) [Example 4A-66], for which the IC50 is under 100 nM.
For the molecule `Cc1cc(Nc2nccc(C(F)(F)F)n2)cc(-c2cnc(C(C)(O)c3ccc(Br)nc3)s2)c1` (single isomer, unassigned) [Example 4A-68], the IC50 is under 100 nM.
`Cc1cc(Nc2nccc(C(F)(F)F)n2)cc(-c2cnc(C(C)(O)c3ccc(Br)nc3)s2)c1` (single isomer, unassigned) [Example 4A-69]: the IC50 is under 100 nM.
Same read-out and setting: in the case of `Cc1cc(Nc2nccc(C(F)(F)F)n2)cc(-c2cnc(C(O)(CO)C(F)(F)F)s2)c1` (single isomer, unassigned) [Example 6-8] it was under 100 nM; in that of `Cc1cc(Nc2nccc(C(F)(F)F)n2)cc(-c2cnc(C(O)(CO)C(F)(F)F)s2)c1` (single isomer, unassigned) [Example 6-9], under 100 nM; in that of `O=C(c1ccccc1)N1CCC(O)(c2ncc(-c3cccc(Nc4nccc(C(F)(F)F)n4)c3)s2)CC1` [4D-6], under 100 nM.
Still for that read-out and setting: the value for `Cc1cc(Nc2nccc(C(F)(F)F)n2)cc(-c2cnc(C(C)(O)CO)s2)c1` (centres unmarked) [Ex 5-5] was under 100 nM; that for `Cc1cc(Nc2nccc(C(F)(F)F)n2)cc(-c2cnc(C(C)(O)CO)s2)c1` (centres unmarked) [Ex 5-6] was under 100 nM.
Same read-out and setting: the value for `Cc1cc(Nc2nccc(C(F)(F)F)n2)cc(-c2cnc(C(C)(O)CO)s2)c1` (centres unmarked) [Ex 5-7] was under 100 nM; that for `Cc1cc(Nc2ncc(F)c(C)n2)cc(-c2cnc(C(C)(O)CO)s2)c1` (centres unmarked) [Ex 5-8] was under 100 nM.
In the case of `Cc1cc(Nc2ncc(F)c(C)n2)cc(-c2cnc(C(C)(O)CO)s2)c1` (centres unmarked) [Ex 5-9], the IC50 was under 100 nM.
On to `Cc1cc(Nc2ncc(F)c(C)n2)cc(-c2cnc(C(C)(O)CO)s2)c1` (centres unmarked) [Ex 5-10], for which the IC50 was under 100 nM.
Consider `Cc1cc(Nc2ncc(Cl)cn2)cc(-c2cnc(C(C)(O)CO)s2)c1` (centres unmarked) [Ex 5-11], for which the IC50 was in the range of 100 to 1000 nM.
On the same count and under the same terms, the value for `Cc1cc(Nc2ncc(Cl)cn2)cc(-c2cnc(C(C)(O)CO)s2)c1` (centres unmarked) [Ex 5-12] was under 100 nM; that for `Cc1cc(Nc2ncc(Cl)cn2)cc(-c2cnc(C(C)(O)CO)s2)c1` (centres unmarked) [Ex 5-13] was 100 to 1000 nM.
For `Cc1cc(Nc2ncc(F)c(C3CC3)n2)cc(-c2cnc(C(C)(O)CO)s2)c1` (centres unmarked) [Ex 5-16], the IC50 was under 100 nM.
Same read-out and setting: in the case of `Cc1cc(Nc2ncc(F)c(C3CC3)n2)cc(-c2cnc(C(C)(O)CO)s2)c1` (centres unmarked) [Ex 5-17] it was under 100 nM; in that of `Cc1cc(Nc2ncc(F)c(C3CC3)n2)cc(-c2cnc(C(C)(O)CO)s2)c1` (centres unmarked) [Ex 5-18], under 100 nM.
On the same count and under the same terms, in the case of `COc1ccc(Nc2nccc(C(F)(F)F)n2)cc1-c1cnc(C2(O)CCC2)s1` [Example 1-1] it was under 100 nM; in that of `OC1(c2ncc(-c3cc(Nc4nccc(C(F)(F)F)n4)ccc3Cl)s2)CCC1` [Example 1-2], 100 to 1000 nM.
Same read-out and setting: in the case of `OC1(c2ncc(-c3cc(Nc4nccc(C(F)(F)F)n4)ccc3OC(F)(F)F)s2)CCC1` [Example 1-3] it was 100 to 1000 nM.
Turning to `OC1(c2ncc(-c3cc(Nc4nccc(C(F)(F)F)n4)ccc3OCc3ccccc3)s2)CCC1` [Example 1-4], the IC50 was 100 to 1000 nM.
For the molecule `Oc1ccc(Nc2nccc(C(F)(F)F)n2)cc1-c1cnc(C2(O)CCC2)s1` [Example 1-5], the IC50 is under 100 nM.
On the same count and under the same terms, the value for `Cc1ccc(Nc2nccc(C(F)(F)F)n2)cc1-c1cnc(C2(O)CCC2)s1` [Example 1-6] was under 100 nM.
Same read-out and setting: in the case of `CC(C)(O)c1ncc(-c2cccc(Nc3nccc(C(F)(F)F)n3)c2)s1` [Example 4A-1] it was under 100 nM.
The same measure, in the same setting: in the case of `CC(O)(c1ncc(-c2cccc(Nc3nccc(C(F)(F)F)n3)c2)s1)C(F)(F)F` (centres unmarked) [Example 4A-2] it was under 100 nM.
Consider `CC(C)(C)C(C)(O)c1ncc(-c2cccc(Nc3nccc(C(F)(F)F)n3)c2)s1` (centres unmarked) [Example 4A-6], for which the IC50 was 100 to 1000 nM.
As to `OC(c1ccccc1)(c1ncc(-c2cccc(Nc3nccc(C(F)(F)F)n3)c2)s1)C(F)F` (centres unmarked) [Example 4A-7], the IC50 fell in the range of 100 to 1000 nM.
Still for that read-out and setting: the value for `CN(C)CC(C)(C)C(O)c1ncc(-c2cccc(Nc3nccc(C(F)(F)F)n3)c2)s1` (centres unmarked) [Example 4A-8] was 100 to 1000 nM; that for `CCC(O)(c1ncc(-c2cccc(Nc3nccc(C(F)(F)F)n3)c2)s1)C(F)(F)F` (centres unmarked) [Example 4A-9] was under 100 nM; that for `CC(O)(c1ncc(-c2cccc(Nc3nccc(C(F)(F)F)n3)c2)s1)C(F)F` (centres unmarked) [Example 4A-10] was under 100 nM.
On the same count and under the same terms, in the case of `OC(c1ncc(-c2cccc(Nc3nccc(C(F)(F)F)n3)c2)s1)(C1CCCCC1)C(F)(F)F` (centres unmarked) [Example 4A-11] it was 1000 to 10000 nM; in that of `CC(O)(c1ccn(S(=O)(=O)c2ccccc2)c1)c1ncc(-c2cccc(Nc3nccc(C(F)(F)F)n3)c2)s1` (centres unmarked) [Example 4A-12], 100 to 1000 nM; in that of `OC(c1ccc(Br)cn1)(c1ncc(-c2cccc(Nc3nccc(C(F)(F)F)n3)c2)s1)C(F)F` (centres unmarked) [Example 4A-13], 100 to 1000 nM.
On the same count and under the same terms, the value for `CN(C)CC(C)(O)c1ncc(-c2cccc(Nc3nccc(C(F)(F)F)n3)c2)s1` (centres unmarked) [Example 4A-14] was 100 to 1000 nM; that for `OC(c1ncc(-c2cccc(Nc3nccc(C(F)(F)F)n3)c2)s1)C1CCCC1` (centres unmarked) [Example 4A-15] was 100 to 1000 nM; that for `OC(c1ccoc1)c1ncc(-c2cccc(Nc3nccc(C(F)(F)F)n3)c2)s1` (centres unmarked) [Example 4A-17] was under 100 nM.
Take `OC(c1cccnc1)c1ncc(-c2cccc(Nc3nccc(C(F)(F)F)n3)c2)s1` (centres unmarked) [Example 4A-18]: the IC50 lay within 100 to 1000 nM.
Still for that read-out and setting: in the case of `CC(C)n1cc(C(O)c2ncc(-c3cccc(Nc4nccc(C(F)(F)F)n4)c3)s2)cn1` (centres unmarked) [Example 4A-20] it was 100 to 1000 nM; in that of `CC(O)(c1cccnc1)c1ncc(-c2cccc(Nc3nccc(C(F)(F)F)n3)c2)s1` (centres unmarked) [Example 4A-21], under 100 nM.

The same experiment, now with this note: read-out: rhSYK activity; class symbol given.
Consider `Cc1cc(Nc2nccc(C(F)(F)F)n2)cc(-c2cnc(C3(O)CCC(O)CC3)s2)c1` (stereo not drawn) [8(2), trans-1-[5-(3-methyl-5-{[4-(trifluoromethyl)pyrimidin-2-yl]amino}phenyl)-1,3-thiazol-2-yl]-cyclohexane-1,4-diol], for which the IC50 is under 100 nM.
For the molecule `Cc1cc(Nc2nccc(C(F)(F)F)n2)cc(-c2cnc([C@]3(O)CC[C@@](C)(O)CC3)s2)c1` [9(2), cis-1-methyl-4-[5-(3-methyl-5-{[4-(trifluoromethyl)pyrimidin-2-yl]amino}phenyl)-1,3-thiazol-2-yl]cyclohexane-1,4-diol], the IC50 is under 100 nM.
Same read-out and setting: in the case of `Cc1cc(Nc2nccc(C(F)(F)F)n2)cc(-c2cnc([C@]3(O)CC[C@@H](C(=O)O)CC3)s2)c1` [33(1)-K, Potassium cis-4-hydroxy-4-[5-(3-methyl-5-{[4-(trifluoromethyl)pyrimidin-2-yl]amino}phenyl)-1,3-thiazol-2-yl]cyclohexanecarboxylate] it was under 100 nM; in that of `Cc1cc(Nc2nccc(C(F)(F)F)n2)cc(-c2cnc(C3(O)CCC(C(=O)O)CC3)s2)c1` (stereo not drawn) [33(1)-NA, Sodium cis-4-hydroxy-4-[5-(3-methyl-5-{[4-(trifluoromethyl)pyrimidin-2-yl]amino}phenyl)-1,3-thiazol-2-yl]cyclohexanecarboxylate], under 100 nM; in that of `Cc1cc(Nc2nccc(C(F)(F)F)n2)cc(-c2cnc([C@]3(O)CC[C@H](C(=O)O)CC3)s2)c1` [33(2)-K, Potassium trans-4-hydroxy-4-[5-(3-methyl-5-{[4-(trifluoromethyl)pyrimidin-2-yl]amino}phenyl)-1,3-thiazol-2-yl]cyclohexanecarboxylate], under 100 nM.
The same measure, in the same setting: the value for `Cc1cc(Nc2nccc(C(F)(F)F)n2)cc(-c2cnc(C3(O)CCC(C#N)CC3)s2)c1` (stereo not drawn) [37(1), cis-4-hydroxy-4-[5-(3-methyl-5-{[4-(trifluoromethyl)pyrimidin-2-yl]amino}phenyl)-1,3-thiazol-2-yl]cyclohexanecarbonitrile] was under 100 nM; that for `Cc1cc(Nc2nccc(C(F)(F)F)n2)cc(-c2cnc(C3(O)CCC(C#N)CC3)s2)c1` (stereo not drawn) [37(2), trans-4-hydroxy-4-[5-(3-methyl-5-{[4-(trifluoromethyl)pyrimidin-2-yl]amino}phenyl)-1,3-thiazol-2-yl]cyclohexanecarbonitrile] was under 100 nM; that for `Cc1cc(Nc2nccc(C(F)(F)F)n2)cc(-c2cnc([C@]3(O)CC[C@H](C(N)=O)CC3)s2)c1` [38(1), trans-4-hydroxy-4-[5-(3-methyl-5-{[4-(trifluoromethyl)pyrimidin-2-yl]amino}phenyl)-1,3-thiazol-2-yl]cyclohexanecarboxamide] was under 100 nM.
As for `Cc1cc(Nc2nccc(C(F)(F)F)n2)cc(-c2cnc(C3(O)CCC(C(N)=O)CC3)s2)c1` (stereo not drawn) [38(2), cis-4-hydroxy-4-[5-(3-methyl-5-{[4-(trifluoromethyl)pyrimidin-2-yl]amino}phenyl)-1,3-thiazol-2-yl]cyclohexanecarboxamide], the IC50 was under 100 nM.
